The target of the assay is T1, human type 1 glycine transporter (GlyT1) (Homo sapiens, UniProt P48067).
T1 construct: T98G cells (glioma cells) expressing human type 1 glycine transporter (GlyT1) were used
T1 sequence (P48067 1-706): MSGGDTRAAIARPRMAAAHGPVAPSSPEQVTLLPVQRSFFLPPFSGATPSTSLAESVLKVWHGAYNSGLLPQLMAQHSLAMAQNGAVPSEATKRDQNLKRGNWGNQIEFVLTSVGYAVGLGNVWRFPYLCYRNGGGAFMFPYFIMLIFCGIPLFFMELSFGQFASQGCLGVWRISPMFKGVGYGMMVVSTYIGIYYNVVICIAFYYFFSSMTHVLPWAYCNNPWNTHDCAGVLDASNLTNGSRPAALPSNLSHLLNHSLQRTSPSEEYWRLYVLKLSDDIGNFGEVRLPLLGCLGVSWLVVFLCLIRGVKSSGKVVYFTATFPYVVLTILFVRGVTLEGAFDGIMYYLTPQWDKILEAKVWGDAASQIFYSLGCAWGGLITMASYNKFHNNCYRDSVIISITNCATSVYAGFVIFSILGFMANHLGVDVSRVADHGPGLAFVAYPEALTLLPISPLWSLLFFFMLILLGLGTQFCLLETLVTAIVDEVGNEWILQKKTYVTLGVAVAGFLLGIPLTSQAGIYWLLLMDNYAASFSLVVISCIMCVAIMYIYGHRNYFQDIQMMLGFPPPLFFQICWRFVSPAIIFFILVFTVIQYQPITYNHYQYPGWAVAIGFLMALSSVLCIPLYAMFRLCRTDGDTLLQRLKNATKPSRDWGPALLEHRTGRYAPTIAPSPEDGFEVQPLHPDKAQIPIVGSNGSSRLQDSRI
As to the kind of experiment: Glycine uptake inhibition experiment ([3H]glycine uptake). Type of assay: cell-based. The note with it: GlyT1. Here is the method:
Glycine Uptake Inhibition Experiment
A glycine uptake experiment was conducted in accordance with the method published in Neuron, 8, 927-935, 1992. In the experiment, T98G cells (glioma cells) expressing human type 1 glycine transporter (GlyT1) were used. The T98G cells were seeded in a 96-well plate at 2.0×10^4 cells/well and cultured overnight in a CO2 incubator. The test substance was dissolved in a 100% DMSO solution and then dissolved in a 10 mM HEPES buffer solution (pH 7.4) containing 150 mM sodium chloride, 1 mM calcium chloride, 5 mM potassium chloride, 1 mM magnesium chloride, 10 mM glucose and 0.2% bovine serum albumin. After removing the cell culture medium, the test substance was subjected to a 10-min pretreatment. Subsequently, the test substance and [^3H] glycine (final concentration: 250 nM) were added to the cells and reaction was performed at room temperature for 15 minutes. After the end of the reaction, the extracellular fluid was aspirated with a manifold to remove excess labeled glycine present outside the cells, and then the cells were lysed with a 0.5 M aqueous sodium hydroxide solution. The glycine content in the cells was determined by measuring the radioactivity in the cell lysate with a liquid scintillation counter. Glycine uptake in the presence of 10 μM ALX5407 was defined as non-specific uptake, and the value calculated by subtracting the amount of the non-specific uptake from the total uptake in the absence of 10 μM ALX5407 was defined as specific uptake. In addition, glycine uptake inhibitory activity (IC50 value) was calculated from an inhibition curve at the concentrations of each test substance ranging from 10^−9 to 10^−5 M. It should be noted that ALX5407 is an HCl salt of N-[(3R)-3-([1,1′-biphenyl]-4-yloxy)-3-(4-fluorophenyl)propyl]-N-methylglycine.

What is called IC50 is the concentration that gives 50% inhibition. High values mean weaker potency in that assay, low ones greater potency in that assay.

Consider “3,4-dichloro-N-[(2-chloro-3-fluorophenyl)(cis-4-fluoro-1-hydroxycyclohexyl)methyl]benzamide [Compound 252]”, for which it took 4.7 µM to reach half-maximal inhibition (IC50).

`CCn1cc(-c2cccc(C(NC(=O)c3nccc(C(F)(F)F)c3Cl)C3(O)CCCC3)c2)cn1` (single isomer, unassigned) [Compound 13, 3-chloro-N-{[3-(1-ethyl-1H-pyrazol-4-yl)phenyl](1-hydroxycyclopentyl)methyl}-4-(trilfuoromethyl)pyridine-2-carboxamide] returned an IC50 of 0.83 µM.

For `CCn1cc(-c2cccc(C(NC(=O)c3nccc(C(F)(F)F)c3Cl)C3(O)CCCC3)c2)cn1` (single isomer, unassigned) [Compound 14, 3-chloro-N-{[3-(1-ethyl-1H-pyraozl-4-yl)phenyl](1-hydroxycyclopentyl)methyl}-4-(trifluoromethyl)pyridine-2-carboxamide], the IC50 was determined as 0.013 µM.

With `O=C(NC(c1cccc(-c2cccnc2)c1)C1(O)CCCC1)c1nccc(C(F)(F)F)c1Cl` (single isomer, unassigned) [Compound 24, 3-chloro-N-{(1-hydroxycyclopentyl)[3-(pyridin-3-yl)phenyl]methyl}-4-(trifluoromethyl)pyridine-2-carboxamide], the IC50 is 2 µM.

`O=C(NC(c1cccc(-c2cccnc2)c1)C1(O)CCCC1)c1nccc(C(F)(F)F)c1Cl` (single isomer, unassigned) [Compound 25, 3-chloro-N-{(1-hydroxycylcopentyl)[3-(pyridin-3-yl)phenyl]methyl}-4-(trifluoromethyl)pyridine-2-carboxamide]: half-maximal inhibition (IC50) required 0.069 µM.

On to `O=C(NC(c1cccc(-c2cccnc2)c1)C1(O)CCCCC1)c1nccc(C(F)(F)F)c1Cl` (single isomer, unassigned) [Compound 27, 3-chloro-N-{(1-hydroxycyclohexyl)[3-(pyridin-3-yl)phenyl]methyl}-4-(trifluoromethyl)pyridine-2-carboxamide], for which the midpoint of inhibition, the IC50, lay at 0.74 µM.

`O=C(NC(c1cccc(-c2cccnc2)c1)C1(O)CCCCC1)c1nccc(C(F)(F)F)c1Cl` (single isomer, unassigned) [Compound 28, 3-chloro-N-{(1-hydroxycyclohexyl)[3-(pyridin-3-yl)phenyl]methyl}-4-(trifluoromethyl)pyridine-2-carboxamide] registered an IC50 of 0.02 µM.

Molecule `O=C(NC(c1cccc(Br)c1)C1(O)CCCCC1)c1nccc(C(F)(F)F)c1Cl` (single isomer, unassigned) [Compound 42, N-[(3-bromophenyl)(1-hydroxycyclohexyl)methyl]-3-chloro-4-(trilfuoromethyl)pyridine-2-carboxamide] came in with an IC50 of 0.038 µM.

Turning to `O=C(NC(c1cccc(Br)c1)C1(O)CCCCC1)c1nccc(C(F)(F)F)c1Cl` (single isomer, unassigned) [Compound 43, N-[(3-bromophenyl)(1-hydroxycyclohexyl)methyl]-3-chloro-4-(trifluoromethyl)pyridine-2-carboxamide], the IC50 amounted to 1.4 µM.

For the molecule `O=C(NC(c1cccc(F)c1)C1(O)CCCC1)c1nccc(C(F)(F)F)c1Cl` (single isomer, unassigned) [Compound 52, 3-chloro-N-[(3-fluorophenyl)(1-hydroxycyclopentyl)methyl]-4-(trifluoromethyl)pyridine-2-carboxamide], inhibition was half-maximal at 0.1 µM (IC50).

Molecule `O=C(NC(c1cccc(F)c1)C1(O)CCCC1)c1nccc(C(F)(F)F)c1Cl` (single isomer, unassigned) [Compound 53, 3-chloro-N-[(3-fluorophenyl)(1-hydroxycyclopentyl)methyl]-4-(trifluoromethyl)pyridine-2-carboxamide] returned an IC50 of 1.5 µM.

`O=C(NC(c1cccc(Cl)c1)C1(O)CCCC1)c1nccc(C(F)(F)F)c1Cl` (single isomer, unassigned) [Compound 54, 3-chloro-N-[(3-chlorophenyl)(1-hydroxycyclopentyl)methyl]-4-(trifluoromethyl)pyridine-2-carboxamide] gave an IC50 of 0.057 µM.

On to `O=C(NC(c1cccc(Cl)c1)C1(O)CCCC1)c1nccc(C(F)(F)F)c1Cl` (single isomer, unassigned) [Compound 55, 3-chloro-N-[(3-chlorophenyl)(1-hydroxycyclopentyl)methyl]-4-(trifluoromethyl)pyridine-2-carboxamide], for which the concentration for half-maximal inhibition (IC50) came out at 8 µM.

In turn, `Cc1cccc(C(NC(=O)c2nccc(C(F)(F)F)c2Cl)C2(O)CCCC2)c1` (single isomer, unassigned) [Compound 56, 3-chloro-N-[(1-hydroxycyclopentyl)(3-methylphenyl)methyl]-4-(trifluoromethyl)pyridine-2-carboxamide] registered an IC50 of 0.24 µM.

For the molecule `COc1cccc(C(NC(=O)c2nccc(C(F)(F)F)c2Cl)C2(O)CCCC2)c1` (single isomer, unassigned) [Compound 57, 3-chloro-N-[(1-hydroxycyclopentyl)(3-methoxyphenyl)methyl]-4-(trifluoromethyl)pyridine-2-carboxamide], half-maximal inhibition (IC50) required 0.15 µM.

Turning to `O=C(NC(c1ccc(F)cc1)C1(O)CCCC1)c1nccc(C(F)(F)F)c1Cl` (single isomer, unassigned) [Compound 58, 3-chloro-N-[(4-fluorophenyl)(1-hydroxycyclopentyl)methyl]-4-(trifluoromethyl)pyridine-2-carboxamide], the IC50 is 0.76 µM.

With `O=C(NC(c1ccc(F)cc1)C1(O)CCCC1)c1nccc(C(F)(F)F)c1Cl` (single isomer, unassigned) [Compound 59, 3-chloro-N-[(4-fluorophenyl)(1-hydroxycyclopentyl)methyl]-4-(trifluoromethyl)pyridine-2-carboxamide], the midpoint of inhibition, the IC50, lay at 9.5 µM.

Consider `O=C(NC(c1ccccc1F)C1(O)CCCC1)c1nccc(C(F)(F)F)c1Cl` (single isomer, unassigned) [Compound 60, 3-chloro-N-[(2-fluorophenyl)(1-hydroxycyclopentyl)methyl]-4-(trifluoromethyl)pyridine-2-carboxamide], for which it took 0.2 µM to reach half-maximal inhibition (IC50).

Molecule `O=C(NC(c1ccccc1F)C1(O)CCCC1)c1nccc(C(F)(F)F)c1Cl` (single isomer, unassigned) [Compound 61, 3-chloro-N-[(2-fluorophenyl)(1-hydroxycyclopentyl)methyl]-4-(trifluoromethyl)pyridine-2-carboxamide] showed an IC50 of 3 µM.

Turning to `O=C(NC(c1cccc(F)c1)C1(O)CCC1)c1nccc(C(F)(F)F)c1Cl` (single isomer, unassigned) [Compound 66, 3-chloro-N-[(3-fluorophenyl)(1-hydroxycyclobutyl)methyl]-4-(trifluoromethyl)pyridine-2-carboxamide], the IC50 is 0.69 µM.

`O=C(NC(c1cccc(F)c1)C1(O)CCCCC1)c1nccc(C(F)(F)F)c1Cl` (single isomer, unassigned) [Compound 67, 3-chloro-N-[(3-fluorophenyl)(1-hydroxycyclohexyl)methyl]-4-(trifluoromethyl)pyridine-2-carboxamide] returned an IC50 of 0.029 µM.

Regarding `O=C(NC(c1cccc(F)c1)C1(O)CCCCC1)c1nccc(C(F)(F)F)c1Cl` (single isomer, unassigned) [Compound 68, 3-chloro-N-[(3-fluorophenyl)(1-hydroxycyclohexyl)methyl]-4-(trifluoromethyl)pyridine-2-carboxamide], the IC50 came out at 2.6 µM.

As for `O=C(NC(c1cccc(F)c1)C1(O)CCCC1)c1cccc(C(F)(F)F)c1Cl` (single isomer, unassigned) [Compound 72, 2-chloro-N-[(3-fluorophenyl)(1-hydroxycyclopentyl)methyl]-3-(trifluoromethyl)benzamide], the half-maximal inhibitory concentration (IC50) was determined as 7.1 µM.

`O=C(NC(c1cccc(F)c1)C1(O)CCCC1)c1cccc(C(F)(F)F)c1Cl` (single isomer, unassigned) [Compound 73, 2-chloro-N-[(3-fluorophenyl)(1-hydroxycyclopentyl)methyl]-3-(trifluoromethyl)benzamide]: half-maximal inhibition (IC50) was put at 0.22 µM.

These data come from patent US20160130278A1 (TAISHO PHARMACEUTICAL CO., LTD, priority 2013, published 2016).
